The data set can be described thus: gradient 5% acetonitrile 3 min, to 50% in 2 min, to 85% in 15 min, held 3 min, 100 µL/min. The settings on record: column: Zorbax Extend-C18 2.1 x 50 mm; eluents: water / acetonitrile, 0.1% formic acid. The method in brief: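 Data were gathered over 3 months by HPLC coupled to a quadrupole time-of-flight mass spectrometer, operated in positive and negative ionization mode. Mixtures of ~100 pure standards ran on a Zorbax Extend-C18 column (2.1 × 50 mm, 1.8 μm) at 100 μL/min, with water and acetonitrile each containing 0.1% formic acid and dead and dwell volumes of 40 μL and 900 μL. Retention time was read from adduct peaks picked by computer and checked manually.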
Regarding `CC(C)Oc1ccc(-c2noc(Cn3nc(-c4ccccc4)ccc3=O)n2)cc1`, the RP-LC retention time was determined as 732 s.

For the compound `O=C(NC1CCN(c2cc(-c3ccccc3)[nH]n2)C1)c1ccsc1` (stereo not given), the RP-LC retention time was determined as 660 s.

`CCc1nc(N)n(CC(=O)NCc2ccccc2)c(=O)c1C`: the RP-LC retention time is 623 s. Then `Cc1ccccc1CC(=O)N1CCC2(CC1)NC(=O)c1cc(F)ccc1N2C`, with 787 s; and `CCCS(=O)(=O)c1nc2ccc(NS(=O)(=O)c3ccc(C(C)(C)C)cc3)cc2s1`, with 1110 s.

`CSc1ccccc1C(=O)NCC1CCN(S(C)(=O)=O)CC1` came in with an RP-LC retention time of 641 s. The value for `CCCN1C(=O)C(CC(=O)NC(C)C)Sc2ncccc21` (stereo not given) was 680 s; that for `Cn1ncc(N2CCCC(CC(=O)N3CCC4(CC3)OCCO4)C2)cc1=O` (stereo not given) was 625 s. The value for `C/C=C(\CCC1NCCc2c1[nH]c1ccccc21)[Si](C)(C)C` (stereo not given) was 815 s; that for `COCc1noc(C2CCCCN2C(=O)Cc2c(C)noc2C)n1` (stereo not given) was 673 s; that for `CCOC(=O)c1c(S(=O)(=O)NCc2ccc3c(c2)OCO3)n[nH]c1CC` was 718 s. The value for `CCCS(=O)(=O)N1CCC(N2C(=O)[C@H](OC)[C@@H]2c2ccncc2)CC1` was 700 s; that for `O=C(c1ccccc1)N1CCC(CCNS(=O)(=O)c2ccc(Br)cc2)CC1` was 909 s. `COCCNC(=O)c1ccc(-n2nc(Sc3ccc(Cl)cc3)ccc2=O)cc1`: the RP-LC retention time worked out at 828 s. The value for `CC1(C(=O)NCc2ccccc2)Oc2cccnc2NC1=O` (stereo not given) was 638 s; that for `CN1Cc2ccccc2-n2ccnc2C12CCN(C(=O)NC1CCCCC1)CC2` was 611 s. Then `Cc1cccc(C(=O)N2CCC3(CC2)NC(=O)c2cc(F)ccc2N3C)c1`, with 779 s. `O=C(NC1CCN(Cc2ccccc2)CC1)C1CCCN(c2ncc(-c3ccc(F)cc3)cn2)C1` (stereo not given) registered an RP-LC retention time of 744 s.

Regarding `CC(C)(C)c1csc(-c2csc(S(=O)(=O)N3CCCCCC3)c2)n1`, the RP-LC retention time came to 1340 s. The value for `COc1cc(NC(=O)C2Nc3cc(F)ccc3S(=O)(=O)N2)cc(OC)c1OC` (stereo not given) was 718 s. `CC1CCN(S(=O)(=O)c2ccc3nn(CCOc4ccc(F)cc4)c(=O)n3c2)CC1` displayed an RP-LC retention time of 1340 s. `CCC(C)(C(=O)NC1CCCCC1)N(Cc1ccco1)C(=O)c1ccc2c(c1)OCO2` (stereo not given) yielded an RP-LC retention time of 564 s. The value for `CCNC(=O)N1CC(n2cc(C(=O)NCCOC)nn2)C1` was 1260 s; that for `CSc1ccc(-c2nc3cnccn3c2Nc2cccc(C(=O)NCc3ccco3)c2)cc1` was 793 s; that for `COc1ccc(NC(=O)N2CCc3cn(C)c4cccc(c34)C2)cc1Cl` was 917 s. Then `CCCN1CCN(C(=O)C2CCCN(c3nnc(C)c4c(C)n(-c5ccccc5)nc34)C2)CC1` (stereo not given), with 582 s; and `COc1ccc(CNC(=O)C2(C)CCN(C(=O)Nc3ccc(F)c(Cl)c3)CC2)cc1`, with 872 s; and `O=C(NCc1ccc2c(c1)OCO2)C(=O)NCC1CCCO1` (stereo not given), with 639 s.

For the compound `Cc1ccc(S(=O)(=O)N2C(=O)CCC2C(=O)NC2CCC(C)CC2)cc1` (stereo not given), the RP-LC retention time is 958 s.

As to `Cc1ccc(-c2csc(NC(=O)c3c(-c4ccc(F)cc4)nc4n3CCS4(=O)=O)n2)cc1`, the RP-LC retention time stood at 1070 s. `CCCN(CCC)C(=O)C1COC2(CCN(C(=O)c3ccco3)CC2)N1C(=O)c1ccccc1` (stereo not given) registered an RP-LC retention time of 778 s. Regarding `Cc1noc(C)c1CN1CCCCC1c1nc(-c2ccncc2)no1` (stereo not given), the RP-LC retention time came out at 649 s. `Cn1nc2n(c1=O)CCN(Cc1ccc(C(C)(C)C)cc1)C2` registered an RP-LC retention time of 707 s. Then `CCn1cc(-c2ccc(Cl)cc2)cc1C(=O)NC(C)c1ccccn1` (stereo not given), with 843 s; and `COCCCNC(=O)CN1C(=O)CCn2nc(-c3cn(C)c4ccccc34)cc21`, with 685 s; and `CC(=O)NCCc1csc(C2CCN(C(=O)C3(c4ccccc4)CC3)CC2)n1`, with 651 s. The value for `O=C(Nc1ccc2ncsc2c1)c1sc2ccccc2c1Cl` was 997 s; that for `Cc1ccc(-c2nc(CN3CCCC3=O)no2)cc1` was 782 s; that for `CC1CCC(NC(=O)c2cc3sc(Cl)cc3n2C)CC1` (stereo not given) was 1230 s. Compound `CCN1CCCC1CNC(=O)CCc1nc(-c2ccc(N3CCCC3)cc2)no1` (stereo not given) had an RP-LC retention time of 685 s. `CSc1cccc(NC(=O)N(C)CCc2noc(-c3ccc(F)cc3)n2)c1` came in with an RP-LC retention time of 922 s. The compound `O=S(=O)(c1cccs1)N1CCN(c2ccc(Nc3cccnc3)nn2)CC1` had an RP-LC retention time of 548 s. The value for `CCOC(=O)c1c(C)[nH]c(NC(=O)Nc2ccccc2C)c1C` was 912 s; that for `COC(=O)c1ccc(-c2nc3cnccn3c2Nc2ccc(OC)c(OC)c2)cc1` was 769 s. The value for `CCc1ccc(NC(=O)Cn2nc3c(N4CCSCC4)nccn3c2=O)cc1` was 888 s. Compound `CCN(CC)c1nc2cc(C(=O)OC)ccc2c(=O)n1-c1ccccc1` returned an RP-LC retention time of 1110 s. Then `CCc1ccc(C2=C(C)C(N3CCC(C(=O)NCCN4CCCC4)CC3)=NS2(=O)=O)cc1`, with 671 s. The value for `CC(=O)N1c2ccc(S(=O)(=O)N3CCCC3)cc2CC1C(=O)NCCC(C)C` (stereo not given) was 806 s. The value for `COC(=O)c1c(NCc2ccc(F)cc2F)c2cc(F)ccc2[nH]c1=O` was 769 s; that for `CCOC(=O)CCNC(=O)N1[C@H]2CC[C@@H]1c1cnc(-c3ccccc3)nc1C2` was 794 s; that for `CN1C(=O)c2cccnc2Sc2cc(NC(=O)c3ccccc3C(F)(F)F)ccc21` was 799 s. Compound `COCCN(C)C(=O)c1cn(C2CN(C(=O)NCC(C)C)C2)nn1` registered an RP-LC retention time of 624 s. `Cc1ccc(C2=NC3(CCN(C(=O)Nc4cccc(C)c4)CC3)NC2=O)cc1` registered an RP-LC retention time of 851 s. The value for `CCc1ccc(Oc2cc(N3CCC(C(=O)N4CCN(c5ccccn5)CC4)CC3)ncn2)cc1` was 689 s; that for `COc1ccc(C(=O)CSc2nc(-c3ccc(OC)cc3)ns2)cc1` was 1090 s.

With `Cc1cc(S(=O)(=O)N2CCN(c3nc4ccncc4n(C)c3=O)CC2)ccc1F`, the RP-LC retention time is 682 s. The value for `O=C(Cc1ccc(Cl)cc1)NCC(=O)Nc1nc2ccccc2[nH]1` was 660 s; that for `O=C(c1cccs1)N1CCN(c2cc(-c3ccccc3)[nH]n2)CC1` was 734 s. Then `O=C(c1ccc2c(c1)OCO2)N1CC2CN(S(=O)(=O)c3ccc(F)cc3)CC(C1)O2`, with 774 s; and `COCCCNC(=O)C1Cn2cccc2C(=O)N1CC(C)C` (stereo not given), with 646 s. `Cc1ccc(C(=O)N2CCC(COc3ccc(C(=O)NC(C)C)cc3)CC2)c(C)c1` came in with an RP-LC retention time of 931 s. Then `Cc1nnc2c(=O)n(CC(=O)N3CCC(Cc4ccccc4)CC3)c3cccnc3n12`, with 814 s; and `Clc1nc2nc3n(c2nc1Cl)CCC3`, with 761 s; and `O=C(Nc1nccs1)C1CCN(C(=O)C2CC(=O)N(c3ccccc3)C2)CC1` (stereo not given), with 658 s. Take `c1ccc(-c2nc(-c3cn(-c4ccccc4)nn3)no2)cc1`: the RP-LC retention time is 1020 s.

For `COc1ccc(-c2noc(C3CCCN3C(=O)c3ccc(C)c(F)c3)n2)cc1` (stereo not given), the RP-LC retention time came to 1040 s.

Turning to `CCOC(=O)CNc1nc(-c2cccc([N+](=O)[O-])c2)nc2ccccc12`, the RP-LC retention time amounted to 833 s. Then `CCCNC(=O)C1CCCN(c2ccc(SCC(=O)NCc3ccc(C)cc3)nn2)C1` (stereo not given), with 656 s; and `CC(C)C(=O)Nc1ccc(C2(C(=O)NCc3ccc(F)c(Cl)c3)CCC2)cc1`, with 927 s; and `CC(=O)Nc1cc(C(=O)NCc2ccccc2Br)c2ccc(C)nc2c1`, with 623 s. Then `COc1ccc(-c2noc(C3(NC(=O)c4ccc(OC)c(F)c4)CCCCC3)n2)cc1`, with 1140 s. The value for `CC(=O)c1cccc(NC(=O)c2csc3c2CCC(C)C3)c1` (stereo not given) was 997 s; that for `C=CC(=O)N1CCCC(n2nc(-c3ccc(Oc4ccccc4)cc3)c3c(N)ncnc32)C1` (stereo not given) was 850 s; that for `COCC1CN(S(=O)(=O)c2cc(F)ccc2C)CC12CCNCC2` (stereo not given) was 641 s.

In turn, `CN1C(=O)c2cccc3c(C(=O)c4ccccc4)ccc(c23)C1=O` came in with an RP-LC retention time of 921 s. Then `CC(=O)N1CCc2cc(C)c(S(=O)(=O)NCc3ccco3)cc21`, with 742 s; and `O=C(NCCCN1CCOCC1)c1cc(-c2ccccc2)nc2n[nH]c(-c3ccccc3)c12`, with 610 s. `Cc1noc(C)c1C1CCCN1C(=O)Nc1ccccc1Br` (stereo not given) came in with an RP-LC retention time of 836 s. Then `O=C(NCc1ccc2c(c1)OCO2)c1nnc(-c2ccc(S(=O)(=O)N3CCCC3)cc2)o1`, with 854 s; and `O=C(CSc1nnc(CCc2nc3ccccc3[nH]2)o1)Nc1nccs1`, with 556 s.

For the origin of these results see the METLIN SMRT retention time set (Domingo-Almenara et al. 2019).
